Assay results published in patent US10940139B2, “Compounds that interact with the Ras superfamily for the treatment of cancers, inflammatory diseases, rasopathies, and fibrotic disease” (Shy Therapeutics LLC, priority 2017, dated 2021).
Where two headings read alike, the source gives them in different places.

Tests used:
Assay in all cases: Ras GTP binding domain inhibition assay (labeled GTP)
KRas G12C mutant = KRas G12C mutant (Homo sapiens (Human), UniProt P01116, G12C); details: 20 μM compound
Sequence of KRas G12C mutant (P01116-2 other isoform, or with tags, fused parts or gaps G12C): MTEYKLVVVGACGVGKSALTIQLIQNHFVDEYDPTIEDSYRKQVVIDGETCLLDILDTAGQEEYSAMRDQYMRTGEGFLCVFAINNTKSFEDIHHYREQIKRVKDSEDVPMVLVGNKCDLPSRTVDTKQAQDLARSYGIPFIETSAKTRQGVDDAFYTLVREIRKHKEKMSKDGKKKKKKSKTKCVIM
In short: (§1)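 Labelled-GTP binding: plate-captured His-KRas protein was pre-exposed to compound for 3 h at room temperature (single 20 μM point or dilution series, 1% DMSO, Tris pH 7.5/MgCl2/DTT buffer). Cy3- or Cy5-GTP was then added for 45 min. Washed wells were read for retained fluorescence to give inhibition or IC50.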

[1] = molecular target: KRas G12D/Q61H double mutant (Homo sapiens (Human), UniProt P01116, G12D/Q61H); details: for inhibition at 20 µM: 20 μM compound; for IC50: serial dilution, read-out: KRas G12D Q61H (classes E-H, IC50)
Sequence of KRas G12D/Q61H double mutant (P01116-2 other isoform, or with tags, fused parts or gaps G12D/Q61H): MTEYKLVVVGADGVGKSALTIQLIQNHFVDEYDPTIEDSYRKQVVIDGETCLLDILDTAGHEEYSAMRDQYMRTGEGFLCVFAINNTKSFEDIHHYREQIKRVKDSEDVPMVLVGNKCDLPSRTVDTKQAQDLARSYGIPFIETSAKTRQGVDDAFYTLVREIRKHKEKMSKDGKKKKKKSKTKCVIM
In short: as §1

KRas Q61H mutant = KRas Q61H mutant (Homo sapiens (Human), UniProt P01116, Q61H); details: 20 μM compound
Sequence of KRas Q61H mutant (P01116-2 other isoform, or with tags, fused parts or gaps Q61H): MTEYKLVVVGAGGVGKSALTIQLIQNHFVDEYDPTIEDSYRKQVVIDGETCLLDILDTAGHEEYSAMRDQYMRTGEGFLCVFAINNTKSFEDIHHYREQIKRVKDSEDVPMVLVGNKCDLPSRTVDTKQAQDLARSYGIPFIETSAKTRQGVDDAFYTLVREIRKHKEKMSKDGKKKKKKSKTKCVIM
In short: as §1

KRas wild type = KRas wild type (Homo sapiens (Human), UniProt P01116); details: 20 μM compound
Sequence of KRas wild type (P01116-2 other isoform, or with tags, fused parts or gaps): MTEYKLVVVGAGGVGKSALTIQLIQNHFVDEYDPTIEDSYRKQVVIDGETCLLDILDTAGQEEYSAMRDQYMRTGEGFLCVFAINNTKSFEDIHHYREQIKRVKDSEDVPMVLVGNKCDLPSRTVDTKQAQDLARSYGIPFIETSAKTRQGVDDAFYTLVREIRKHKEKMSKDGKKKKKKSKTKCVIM
In short: as §1

[2] = molecular target: KRas G12C/Q61H double mutant (Homo sapiens (Human), UniProt P01116, G12C/Q61H); details: 20 μM compound
Sequence of KRas G12C/Q61H double mutant (P01116-2 other isoform, or with tags, fused parts or gaps G12C/Q61H): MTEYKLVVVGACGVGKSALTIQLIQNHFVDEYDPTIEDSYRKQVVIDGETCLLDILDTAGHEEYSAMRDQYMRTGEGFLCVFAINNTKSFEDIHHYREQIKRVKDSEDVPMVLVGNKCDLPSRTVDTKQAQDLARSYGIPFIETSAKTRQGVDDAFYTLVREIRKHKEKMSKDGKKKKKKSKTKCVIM
In short: as §1

KRas G12D mutant protein = KRas G12D mutant protein (Homo sapiens (Human), UniProt P01116, G12D); details: 20 μM compound
Sequence of KRas G12D mutant protein (P01116-2 other isoform, or with tags, fused parts or gaps G12D): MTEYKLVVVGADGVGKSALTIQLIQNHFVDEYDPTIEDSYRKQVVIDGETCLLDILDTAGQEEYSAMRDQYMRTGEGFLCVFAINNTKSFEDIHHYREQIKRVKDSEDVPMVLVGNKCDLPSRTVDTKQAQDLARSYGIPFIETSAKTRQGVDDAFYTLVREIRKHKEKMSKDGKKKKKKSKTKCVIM

[3] = read-out: % Inhibition at 20 μM KRas G12C
[4] = read-out: % Inhibition at 20 μM KRas G12D Q61H
[5] = read-out: % Inhibition at 20 μM KRas Q61H
[6] = read-out: % Inhibition at 20 μM KRas wild type
[7] = read-out: % Inhibition at 20 μM KRas G12C Q61H
[8] = read-out: % Inhibition at 20 μM KRas G12D
[9] = KRas G12C, read-out: % Inhibition at 20 μM of K-Ras mutant and wild-type protein, KRas G12C
[10] = KRas G12D/Q61H double mutant, read-out: % Inhibition at 20 μM of K-Ras mutant and wild-type protein, KRas G12D Q61H
[11] = KRas Q61H, read-out: % Inhibition at 20 μM of K-Ras mutant and wild-type protein, KRas Q61H
[12] = KRas wild type, read-out: % Inhibition at 20 μM of K-Ras mutant and wild-type protein, KRas wild type
[13] = KRas G12C/Q61H double mutant, read-out: % Inhibition at 20 μM of K-Ras mutant and wild-type protein, KRas G12C Q61H
[14] = KRas G12D, read-out: % Inhibition at 20 μM of K-Ras mutant and wild-type protein, KRas G12D

Row | Structure (SMILES) | inhibition at 20 µM (KRas G12C mutant; [3]) [%] | inhibition at 20 µM [1, 4] [%] | inhibition at 20 µM (KRas Q61H mutant; [5]) [%] | inhibition at 20 µM (KRas wild type; [6]) [%] | inhibition at 20 µM [2, 7] [%] | inhibition at 20 µM (KRas G12D mutant protein; [8]) [%] | inhibition at 20 µM (KRas G12C mutant; [9]) [%] | inhibition at 20 µM [1, 10] [%] | inhibition at 20 µM (KRas Q61H mutant; [11]) [%] | inhibition at 20 µM (KRas wild type; [12]) [%] | inhibition at 20 µM [2, 13] [%] | inhibition at 20 µM (KRas G12D mutant protein; [14]) [%] | IC50 [1] [µM]
1 | Oc1nc(-c2ccccn2)nc2c(-c3ccccc3F)csc12 [drawing 2868] | 25 to 50 | 51 to 75 | 51 to 75 | 51 to 75 | 51 to 75 | 51 to 75 | – | – | – | – | – | – | –
2 | O=C(COCc1ccnc(O)c1)Nc1nc(-c2ccccn2)nc2sccc12 [drawing 2857] | 25 to 50 | 51 to 75 | 51 to 75 | 25 to 50 | 51 to 75 | 25 to 50 | – | – | – | – | – | – | –
3 | Oc1nc(-c2ccccn2)nc2c(C3CCC3)csc12 [drawing 3478] | – | – | – | – | – | – | 25 to 50 | 51 to 75 | 51 to 75 | 25 to 50 | 51 to 75 | 51 to 75 | –
4 | Oc1nc(-c2ccccn2)nc2scc(Br)c12 [drawing 2703] | 25 to 50 | 51 to 75 | 76 to 100 | 51 to 75 | 51 to 75 | 51 to 75 | – | – | – | – | – | – | –
5 | OCC1(c2ccc(-c3nc(-c4ccccn4)nc(O)c3Oc3ccccc3)cc2)CC1 [drawing 3534] | – | – | – | – | – | – | 51 to 75 | 51 to 75 | 76 to 100 | 1 to 25 | 76 to 100 | 25 to 50 | –
6 | COc1ccnc(-c2nc(O)c3c(Cl)csc3n2)c1 [drawing 2800] | 25 to 50 | 51 to 75 | 76 to 100 | 51 to 75 | 76 to 100 | 51 to 75 | – | – | – | – | – | – | 11 to 30
7 | COc1cnc(-c2ccccn2)nc1O [drawing 3469] | – | – | – | – | – | – | 76 to 100 | 51 to 75 | 51 to 75 | 25 to 50 | 76 to 100 | 51 to 75 | –
8 | N#Cc1ccc(COCC(=O)Nc2nc(-c3ccccn3)nc3sccc23)cc1 [drawing 2799] | 25 to 50 | 25 to 50 | 76 to 100 | 25 to 50 | 76 to 100 | 76 to 100 | – | – | – | – | – | – | 11 to 30
9 | COc1ccnc(-c2nc(O)c3ccsc3n2)c1 [drawing 2708] | 51 to 75 | 51 to 75 | 51 to 75 | 25 to 50 | 51 to 75 | 51 to 75 | – | – | – | – | – | – | 5 to 10
10 | COc1nc(-c2ccccn2)nc2c(C3CCC3)csc12 [drawing 3480] | – | – | – | – | – | – | 25 to 50 | 51 to 75 | 76 to 100 | 1 to 25 | 51 to 75 | 1 to 25 | –
11 | O=C(c1csc2c(O)nc(-c3ccccn3)nc12)N1CCNC(c2ccc(O)cc2)C1 (centres unmarked) [drawing 2808] | 51 to 75 | 76 to 100 | 76 to 100 | 76 to 100 | 76 to 100 | 51 to 75 | – | – | – | – | – | – | 5 to 10
12 | COc1c(O)nc(-c2ccccn2)nc1Oc1cccc(C(F)(F)F)c1 [drawing 3557] | – | – | – | – | – | – | 25 to 50 | 51 to 75 | 51 to 75 | 25 to 50 | 76 to 100 | 76 to 100 | –
13 | Cc1cnc(-c2ccccn2)nc1NC(=O)Cc1ccc2cnccc2c1 [drawing 2856] | 25 to 50 | 51 to 75 | 51 to 75 | 51 to 75 | 51 to 75 | 51 to 75 | – | – | – | – | – | – | –
14 | Oc1nc(-c2ccccn2)nc2sccc12 [drawing 2704] | 25 to 50 | 51 to 75 | 51 to 75 | 25 to 50 | 51 to 75 | 25 to 50 | – | – | – | – | – | – | 11 to 30
15 | O=C(CCn1ccnc1)Nc1nc(-c2ccccn2)nc2sccc12 [drawing 2889] | 25 to 50 | 51 to 75 | 76 to 100 | 51 to 75 | 51 to 75 | 76 to 100 | – | – | – | – | – | – | –

More lines, main results first:

Row | inhibition at 20 µM (KRas G12C mutant; [3]) [%] | inhibition at 20 µM [1, 4] [%] | inhibition at 20 µM (KRas Q61H mutant; [5]) [%] | inhibition at 20 µM (KRas wild type; [6]) [%] | inhibition at 20 µM [2, 7] [%] | inhibition at 20 µM (KRas G12D mutant protein; [8]) [%] | inhibition at 20 µM (KRas G12C mutant; [9]) [%] | inhibition at 20 µM [1, 10] [%] | inhibition at 20 µM (KRas Q61H mutant; [11]) [%] | inhibition at 20 µM (KRas wild type; [12]) [%] | inhibition at 20 µM [2, 13] [%] | inhibition at 20 µM (KRas G12D mutant protein; [14]) [%] | Structure (SMILES) | IC50 [1] [µM]
16 | 1 to 25 | 51 to 75 | 51 to 75 | 76 to 100 | 51 to 75 | 51 to 75 | – | – | – | – | – | – | Cn1nnc2ccc(-c3csc4c(O)nc(-c5ccccn5)nc34)cc21 [drawing 2861] | –
17 | 25 to 50 | 51 to 75 | 51 to 75 | 76 to 100 | 51 to 75 | 51 to 75 | – | – | – | – | – | – | Cc1cnccc1-c1csc2c(O)nc(-c3ccccn3)nc12 [drawing 2888] | –
18 | 51 to 75 | 51 to 75 | 51 to 75 | 51 to 75 | 51 to 75 | 51 to 75 | – | – | – | – | – | – | COc1cc(-c2csc3c(O)nc(-c4ccccn4)nc23)cnc1C(F)(F)F [drawing 2884] | –
19 | – | – | – | – | – | – | 1 to 25 | 51 to 75 | 51 to 75 | 1 to 25 | 51 to 75 | 25 to 50 | Cc1c(C(=O)O)sc2c(O)nc(-c3ccccn3)nc12 [drawing 3475] | –
20 | 25 to 50 | 51 to 75 | 51 to 75 | 25 to 50 | 25 to 50 | 25 to 50 | – | – | – | – | – | – | Oc1nc(-c2ccccn2)nc2c(-c3cccc4c3OCO4)csc12 [drawing 2849] | –
21 | 25 to 50 | 25 to 50 | 51 to 75 | 1 to 25 | 25 to 50 | 51 to 75 | – | – | – | – | – | – | Oc1nc(-c2ccccn2)nc2c(-c3cc(F)ccc3OC(F)F)csc12 [drawing 2860] | –
22 | 25 to 50 | 51 to 75 | 51 to 75 | 76 to 100 | 51 to 75 | 76 to 100 | – | – | – | – | – | – | OCC1(c2ccc(-c3csc4c(O)nc(-c5ccccn5)nc34)cc2)CC1 [drawing 2886] | –
23 | – | – | – | – | – | – | 25 to 50 | 51 to 75 | 76 to 100 | 51 to 75 | 51 to 75 | 51 to 75 | Nc1cccc(-c2csc3c(O)nc(-c4ccccn4)nc23)n1 [drawing 3514] | –
